By MIC is commonly meant the smallest concentration in the dilution series that meets the test's criterion for growth inhibition.

Converted amounts (≈) assume the structure as drawn. The source made the active and inactive calls.

The subject of experiment [1] is Candida albicans. Nature of the experiment: Antimicrobial activity against Candida albicans MTCC 183 after 12 hrs by well diffusion method. Type of experiment: functional. Conditions: MTCC 183, 12 h. (In agar diffusion tests the substance spreads into inoculated agar from a disc or well.)
The test system of experiment [2] is Pseudomonas aeruginosa. Nature of the experiment: Antimicrobial activity against Pseudomonas aeruginosa MTCC 4673 after 12 hrs by well diffusion method. Format: functional. Conditions: MTCC 4673, 12 h.
For experiment [3], the system named is Mycolicibacterium smegmatis. Description: Antimicrobial activity against Mycobacterium smegmatis MTCC 943 at 100 ug/mL after 12 hrs by well diffusion method. Type of experiment: functional. Conditions: for zone of inhibition at 100 µg/mL: MTCC 943, 12 h, read-out: DIZ.
In experiment [4] the test system is Candida albicans. Nature of the experiment: Antimicrobial activity against Candida albicans MTCC 183 at 50 ug/mL after 12 hrs by well diffusion method. Type of experiment: functional.
The test system of experiment [5] is Salmonella typhimurium. Description: Antimicrobial activity against Salmonella typhimurium MTCC 3732 after 12 hrs by well diffusion method. Type of experiment: functional, Salmonella enterica subsp. enterica serovar Typhimurium. Conditions: Salmonella enterica, MTCC 3732, 12 h.
For experiment [6], the system named is Candida albicans. Nature of the experiment: Antimicrobial activity against Candida albicans MTCC 183 at 100 ug/mL after 12 hrs by well diffusion method. Format: functional.
The test system of experiment [7] is Staphylococcus aureus. Nature of the experiment: Antimicrobial activity against Staphylococcus aureus MTCC 3160 after 12 hrs by well diffusion method. The conditions noted are these: MTCC 3160, 12 h. Format: functional.
In experiment [8] the test system is Staphylococcus aureus. Nature of the experiment: Antimicrobial activity against Staphylococcus aureus MTCC 3160 at 100 ug/mL after 12 hrs by well diffusion method. Type of experiment: functional. The conditions noted are these: for zone of inhibition at 100 µg/mL: MTCC 3160, 12 h, read-out: DIZ.
Experiment [9] has as its system Mycolicibacterium smegmatis. Description: Antimicrobial activity against Mycobacterium smegmatis MTCC 943 after 12 hrs by well diffusion method. Format: functional. Conditions: MTCC 943, 12 h.
For experiment [10], the system named is Salmonella typhimurium. Nature of the experiment: Antimicrobial activity against Salmonella typhimurium MTCC 3732 at 50 ug/mL after 12 hrs by well diffusion method. Format: functional. The conditions noted are these: for diameter of the inhibition zone (DIZ): Salmonella enterica subsp. enterica serovar Typhimurium; for zone of inhibition at 50 µg/mL: Salmonella enterica, MTCC 3732, 12 h, read-out: DIZ.

The test system of experiment [11] is Penicillium chrysogenum. Nature of the experiment: Antimicrobial activity against Penicillium chrysogenum MTCC 6795 at 50 to 100 ug/mL after 48 hrs by well diffusion method. Type of experiment: functional, organism-based.
For experiment [12], the system named is Staphylococcus aureus. Conditions: MTCC 3160, 50 ug/mL.
Description: (§1) Antimicrobial activity against Staphylococcus aureus MTCC 3160 at 50 ug/mL after 12 hrs by well diffusion method
Experiment [13] concerns Salmonella typhimurium. Nature of the experiment: Antimicrobial activity against Salmonella typhimurium MTCC 3732 at 100 ug/mL after 12 hrs by well diffusion method. Format: functional. Conditions: for diameter of the inhibition zone (DIZ): Salmonella enterica subsp. enterica serovar Typhimurium; for zone of inhibition at 100 µg/mL: Salmonella enterica, MTCC 3732, 12 h, read-out: DIZ.

Experiment [14] has as its system Mycolicibacterium smegmatis. Nature of the experiment: Antimicrobial activity against Mycobacterium smegmatis MTCC 943 at 50 ug/mL after 12 hrs by well diffusion method. Format: functional. Conditions: for zone of inhibition at 50 µg/mL: MTCC 943, 12 h, read-out: DIZ.
Experiment [15] concerns Pseudomonas aeruginosa. Nature of the experiment: Antimicrobial activity against Pseudomonas aeruginosa MTCC 4673 at 50 ug/mL after 12 hrs by well diffusion method. Conditions: MTCC 4673, 12 h, read-out: DIZ. Format: functional.
For experiment [16], the system named is Pseudomonas aeruginosa. Nature of the experiment: Antimicrobial activity against Pseudomonas aeruginosa MTCC 4673 at 100 ug/mL after 12 hrs by well diffusion method. The conditions noted are these: MTCC 4673, 12 h, read-out: DIZ. Format: functional.
Experiment [17] relates to Staphylococcus aureus. Nature of the experiment: microbe, parasite or virus in culture. Conditions: MTCC 3160, 12 h, read-out: DIZ.
Description: as §1

Turning to `N#Cc1ccc(Cn2cc(C(=O)NN)c(=O)c3cccc(C(F)(F)F)c32)cc1`, the MIC in experiment [1] is greater than 100 µg/mL; in experiment [2], 25 µg/mL (≈ 64.7 µM); in [5] it was greater than 100 µg/mL; in experiment [7] it was 100 µg/mL (≈ 259 µM); in experiment [9] it was 50 µg/mL (≈ 129 µM). In addition, the zone of inhibition at 100 µg/mL in experiment [3], in [8] and in experiment [16] was 8 mm throughout. Further, the “diameter of the inhibition zone (DIZ)” value in experiment [4], in experiment [6], in [10] and in [13] was “inactive” each time. Also, the outcome in experiment [11] was inactive. The DIZ entry in [12] is “inactive”. In addition, the values for the zone of inhibition at 50 µg/mL in [14] and in [15] were 7.3 mm and 8 mm, respectively.
With `N#Cc1ccc(Cn2cc(C(=O)NN)c(=O)c3ccc(C(F)(F)F)cc32)cc1`, the MIC in experiment [1] is greater than 100 µg/mL; in experiment [2], 25 µg/mL (≈ 64.7 µM); in [5] it was greater than 100 µg/mL; in experiment [7] it was greater than 100 µg/mL; in [9] it was 25 µg/mL (≈ 64.7 µM). Moreover, the zone of inhibition at 100 µg/mL in experiment [3] and in experiment [16] was 8 mm throughout. Also, the “diameter of the inhibition zone (DIZ)” value in [4], in experiment [6], in experiment [8], in experiment [10] and in experiment [13] was “inactive” in each case. For the same molecule, the outcome in [11] was inactive. In [12], the DIZ result was “inactive”. Also, the zone of inhibition at 50 µg/mL in [14] and in experiment [15] was 8 mm in each case.
For `NNC(=O)c1cn(Cc2ccc(Cl)cc2Cl)c2c(C(F)(F)F)cccc2c1=O`, the MIC is greater than 100 µg/mL in experiment [1]; 25 µg/mL (≈ 58.1 µM) in [2]; 25 µg/mL (≈ 58.1 µM) in [5]; 100 µg/mL (≈ 232 µM) in experiment [7]; greater than 100 µg/mL in experiment [9]. Besides, the “diameter of the inhibition zone (DIZ)” value in experiment [3], in experiment [4], in experiment [6] and in experiment [14] was “inactive” throughout. Moreover, the zone of inhibition at 100 µg/mL came out at 9 mm in experiment [8], 12 mm in [13] and 8 mm in experiment [16]. Besides, the zone of inhibition at 50 µg/mL in experiment [10] is 11.3 mm; in experiment [15], 8 mm. Besides, in experiment [11], the outcome was inactive. Besides, in [12], the DIZ entry is “inactive”.
As to `CCOC(=O)c1cn(Cc2ccc(C#N)cc2)c2cc(C(F)(F)F)ccc2c1=O`, the minimal inhibitory concentration (MIC) in experiment [1] is greater than 100 µg/mL; in experiment [2] it was 25 µg/mL (≈ 62.4 µM); in experiment [5], 50 µg/mL (≈ 125 µM); in experiment [7] it was greater than 100 µg/mL; in experiment [9] it was 50 µg/mL (≈ 125 µM). Also, the “diameter of the inhibition zone (DIZ)” value in [3], in experiment [4], in experiment [6] and in experiment [8] was “inactive” in each case. Also, the figures for the zone of inhibition at 50 µg/mL in [10], in experiment [14] and in experiment [15] were 7.3 mm, 7 mm and 8 mm, respectively. Also, the outcome in experiment [11] was inactive. Besides, in experiment [12], the DIZ entry was “inactive”. Also, the zone of inhibition at 100 µg/mL in [13] and in experiment [16] was 8 mm in each case.
Turning to `O=C(O)c1cn(C2CC2)c2cc(N3CCNCC3)c(F)cc2c1=O` [CIPROFLOXACIN], the MIC in experiment [2], in [5], in [7] and in [9] was less than 5 µg/mL throughout. The zone of inhibition at 100 µg/mL is 30 mm in experiment [3], 13 mm in experiment [8], 37 mm in experiment [13] and 30 mm in experiment [16]. In addition, the zone of inhibition at 50 µg/mL in [10] is 37 mm; in experiment [17], 13 mm; in experiment [14], 29 mm; in experiment [15], 26.6 mm.
Consider `CCOC(=O)c1cn(Cc2ccc(Cl)cc2Cl)c2c(C(F)(F)F)cccc2c1=O`, for which the MIC is greater than 100 µg/mL in experiment [1]; 50 µg/mL (≈ 113 µM) in [2]; greater than 100 µg/mL in [5]; 100 µg/mL (≈ 225 µM) in experiment [7]; 50 µg/mL (≈ 113 µM) in experiment [9]. Further, the zone of inhibition at 100 µg/mL in [3] is 8 mm; in [8], 9 mm; in experiment [16], 7 mm. Besides, the “diameter of the inhibition zone (DIZ)” value in experiment [4], in [6], in experiment [10] and in [13] was “inactive” throughout. Also, in [11], the result was inactive. The DIZ entry in [12] was “inactive”. For the same molecule, the zone of inhibition at 50 µg/mL in experiment [14] and in experiment [15] was 7 mm in each case.
Take `C#CCn1cc(C(=O)NN)c(=O)c2ccc(C(F)(F)F)cc21`: the MIC in [1] was greater than 100 µg/mL; in experiment [2] it was 25 µg/mL (≈ 80.8 µM); in experiment [5] it was 25 µg/mL (≈ 80.8 µM); in experiment [7], 100 µg/mL (≈ 323 µM); in experiment [9] it was 25 µg/mL (≈ 80.8 µM). Also, the zone of inhibition at 100 µg/mL in experiment [3], in experiment [13] and in [16] was 8 mm in each case. Besides, the “diameter of the inhibition zone (DIZ)” value in experiment [4], in experiment [6] and in [8] was “inactive” each time. The results for the zone of inhibition at 50 µg/mL in experiment [10], in [14] and in experiment [15] were 7.6 mm, 8 mm and 8 mm, respectively. Besides, in experiment [11], the result was inactive. Further, the DIZ entry in [12] was “inactive”.

These data come from ChEMBL document CHEMBL2424533, “Design and regioselective synthesis of trifluoromethylquinolone derivatives as potent antimicrobial agents” (2013).
